Source: ChEMBL document CHEMBL4627377, “Betulin isolated from Pyrola incarnata Fisch. inhibited lipopolysaccharide (LPS)-induced neuroinflammation with the guidance of computer-aided drug design” (Bioorg Med Chem Lett, 2020)
The source made the active and inactive calls. The rule behind the calls is not given here.

Legend:
[1] = test system: BV-2; assay: Inhibition of LPS-induced IL-1beta production in […] BV2 cells at 250 ug/ml preincubated for 4 hrs followed by LPS stimulation and measured after 24 hrs by ELISA; format: functional, cell-based; settings: Mus musculus
[2] = test system: BV-2; assay: Inhibition of LPS-induced TNF-alpha production in […] BV2 cells at 250 ug/ml preincubated for 4 hrs followed by LPS stimulation and measured after 24 hrs by ELISA; format: functional, cell-based; settings: Mus musculus
[3] = test system: BV-2; assay: Cytotoxicity against […] BV2 cells assessed as survival rate at 250 ug/ml; format: cell-based; settings: mouse
[4] = test system: BV-2; assay: Inhibition of LPS-induced IL6 production in […] BV2 cells at 20 ug/ml preincubated for 4 hrs followed by LPS stimulation and measured after 24 hrs by ELISA; format: functional, cell-based; settings: Mus musculus
[5] = test system: BV-2; assay: Inhibition of LPS-induced NO release in […] BV2 cells at 20 ug/ml preincubated for 4 hrs followed by LPS stimulation and measured after 24 hrs by Griess reagent based assay; format: functional, cell-based; settings: Mus musculus
[6] = test system: BV-2; assay: Cytotoxicity against […] BV2 cells assessed as survival rate at 500 ug/ml; format: cell-based; settings: mouse
[7] = test system: BV-2; assay: Inhibition of LPS-induced TNF-alpha production in […] BV2 cells preincubated for 4 hrs followed by LPS stimulation and measured after 24 hrs by ELISA; format: functional, cell-based; settings: Mus musculus
[8] = test system: BV-2; assay: Inhibition of LPS-induced IL-1beta production in […] BV2 cells preincubated for 4 hrs followed by LPS stimulation and measured after 24 hrs by ELISA; format: functional, cell-based; settings: Mus musculus
[9] = test system: BV-2; assay: Inhibition of LPS-induced JNK-54 activation in […] BV2 cells preincubated for 4 hrs followed by LPS stimulation and measured after 24 hrs by Western blot analysis; format: functional, cell-based; settings: Mus musculus
[10] = test system: BV-2; assay: Inhibition of LPS-induced NO release in […] BV2 cells at 62.5 to 250 ug/ml preincubated for 4 hrs followed by LPS stimulation and measured after 24 hrs by Griess reagent based assay; format: functional, cell-based; settings: Mus musculus
[11] = test system: BV-2; assay: Cytotoxicity against […] BV2 cells assessed as survival rate at 125 ug/ml; format: cell-based; settings: mouse
[12] = test system: BV-2; assay: Inhibition of LPS-induced JNK-54 phosphorylation in […] BV2 cells at 62.5 to 250 ug/ml preincubated for 4 hrs followed by LPS stimulation and measured after 24 hrs by Western blot analysis; format: functional, cell-based; settings: Mus musculus
[13] = test system: BV-2; assay: Inhibition of LPS-induced iNOS expression in […] BV2 cells at 250 ug/ml preincubated for 4 hrs followed by LPS stimulation and measured after 24 hrs by Western blot analysis; format: functional, cell-based; settings: Mus musculus
[14] = test system: BV-2; assay: Inhibition of LPS-induced JNK-46 phosphorylation in […] BV2 cells at 62.5 to 250 ug/ml preincubated for 4 hrs followed by LPS stimulation and measured after 24 hrs by Western blot analysis; format: functional, cell-based; settings: Mus musculus
[15] = test system: BV-2; assay: Inhibition of LPS-induced IL6 production in […] BV2 cells preincubated for 4 hrs followed by LPS stimulation and measured after 24 hrs by ELISA; format: functional, cell-based; settings: Mus musculus
[16] = test system: BV-2; assay: Inhibition of LPS-induced NF-kappaB/p65 nuclear translocation in […] BV2 cells assessed as reduction in p65/NFkappaB level at 250 ug/ml by DAPI staining based fluorescence microscopic analysis; format: functional, cell-based; settings: Mus musculus
[17] = test system: BV-2; assay: Inhibition of LPS-induced JNK-46 activation in […] BV2 cells preincubated for 4 hrs followed by LPS stimulation and measured after 24 hrs by Western blot analysis; format: functional, cell-based; settings: Mus musculus

C[C@@H]1CC[C@]2(C(=O)O)CC[C@]3(C)C(=CC[C@@H]4[C@@]5(C)CC[C@H](O)[C@@](C)(CO)[C@@H]5CC[C@]43C)[C@@H]2[C@]1(C)O [ROTUNDIC ACID]
inhibition [1]: Active
inhibition [2]: Active
Activity [3]: Non-Toxic

C[C@@H]1CC[C@]2(C(=O)O[C@H]3O[C@@H](CO)[C@H](O)[C@@H](O)[C@@H]3O)CC[C@]3(C)C(=CC[C@@H]4[C@@]5(C)CC[C@H](O)[C@@](C)(CO)[C@@H]5CC[C@]43C)[C@@H]2[C@]1(C)O
inhibition [1]: Active
inhibition [2]: Active
Activity [3]: Non-Toxic

COc1cc2c(cc1OC)C(=O)C(CC1CCN(Cc3ccccc3)CC1)C2 (configuration not stated)
inhibition [4]: Active
inhibition [5]: Active

C[C@H]1[C@H](C)CC[C@]2(C(=O)O)CC[C@]3(C)C(=CC[C@@H]4[C@@]5(C)CC[C@H](O)C(C)(C)[C@@H]5CC[C@]43C)[C@H]12 [URSOLIC ACID]
inhibition [1]: Active
inhibition [2]: Active
Activity [6]: Non-Toxic

C=C(C)[C@@H]1CC[C@]2(CO)CC[C@]3(C)[C@H](CC[C@@H]4[C@@]5(C)CC[C@H](O)C(C)(C)[C@@H]5CC[C@]43C)[C@@H]12 [BETULIN]
inhibition [7]: Dose-dependent effect
inhibition [8]: Dose-dependent effect
inhibition [9]: Dose-dependent effect
inhibition [10]: Active
Activity [11]: Non-Toxic
inhibition [12]: Active
inhibition [13]: Active
inhibition [14]: Active
inhibition [15]: Dose-dependent effect
inhibition [16]: Active
inhibition [17]: Dose-dependent effect
